Experimental data published in patent US6407248B1, “α-unsaturated amines, their production and use” (Takeda Chemical Industries, Ltd., priority 1987, dated 2002).
Like-named read-outs stand apart in the source and are kept apart here.

Tested on: Brown Planthoppers (Nilaparvata lugens)
Test: Effect against brown planthoppers (foliar spray on rice seedlings)
Assay type: in vivo
Settings: for mortality at 500 µg/mL: Nilaparvata lugens, foliar, 168 h, read-out: % Mortality after 7 days
Procedure: Effect Against Brown Planthoppers (Nilaparvata lugens)
An emulsifiable concentrate of the compound of the invention, prepared in the same manner as Example 112 below, was diluted with water to a concentration of 500 ppm and sprayed over the stems and leaves of rice seedlings in the 2-leaf stage at the rate of 10 ml per paper pot. Water was put in test tubes and the treated rice seedlings were placed therein. Then, 10 brown planthopper larvae were released in each tube, which was then capped with an aluminum cap. The test tubes were maintained in an incubator at 25° C. and the dead insects were counted 7 days after release. The % mortality was calculated using the following formula. [formula]

[1] = emulsifiable concentrate diluted with water to 500 ppm, sprayed on rice seedlings (2-leaf stage), 10 ml per paper pot, 10 larvae per tube, 25° C., dead insects counted 7 days after release

Row | Compound | mortality at 500 µg/mL | % Mortality after 7 days [1] | further results
1 | CNC(=C[N+](=O)[O-])NCc1cccnc1 [Compound 3, 1-Methylamino-1-(3-pyridylmethyl)amino-2-nitroethylene] | 100% | – | –
2 | CCNC(=C[N+](=O)[O-])NCc1cccnc1 [Compound 4, 1-Ethylamino-1-(3-pyridylmethyl)amino-2-nitroethylene] | 100% | – | –
3 | C=CCNC(=C[N+](=O)[O-])NCc1cccnc1 [Compound 7, 1-Allylamino-1-(3-pyridylmethyl)amino-2-nitroethylene] | – | – | mortality at 500 µg/mL [1]: 100%
4 | CN(C)CCNC(=C[N+](=O)[O-])NCc1cccnc1 [Compound 12, 1-(2-Dimethylaminoethyl)amino-1-(3-pyridylmethyl)amino-2-nitroethylene] | – | – | mortality at 500 µg/mL [1]: 100%
5 | COCCNC(=C[N+](=O)[O-])NCc1cccnc1 [Compound 14, 1-(2-Methoxyethyl)amino-1-(3-pyridylmetyl)amino-2-nitroethylene] | – | 100% | –
6 | C[Si](C)(C)CNC(=C[N+](=O)[O-])NCc1cccnc1 [Compound 17, 1-(3-Pyridylmethyl)amino-1-(trimethylsilylmethyl)amino-2-nitroethylene] | 100% | – | –
7 | NNC(=C[N+](=O)[O-])NCc1cccnc1 [Compound 18, 1-Hydrazino-1-(3-pyridylmethyl)amino-2-nitroethylene] | 100% | – | –
8 | CN(C)C(=C[N+](=O)[O-])NCc1cccnc1 [Compound 19, 1-Dimethylamino-1-(3-pyridylmethyl)amino-2-nitroethylene] | 100% | – | –
9 | O=[N+]([O-])C=C(NCc1cccnc1)N1CCCC1 [Compound 20, 1-(3-Pyridylmethyl)amino-1-pyrrolidino-2-nitroethylene] | – | – | mortality at 500 µg/mL [1]: 100%
10 | CN(C)NC(=C[N+](=O)[O-])NCc1cccnc1 [Compound 24, 1-(2,2-Dimethyl-1-hydrazino)-1-(3-pyridylmethyl)amino-2-nitroethylene] | – | 100% | –
11 | CN(Cc1cccnc1)C(N)=C[N+](=O)[O-] [Compound 25, 1-Amino-1-(N-methyl-N-3-pyridylmethyl)amino-2-nitroethylene] | – | 100% | –
12 | CNC(=C[N+](=O)[O-])N(C)Cc1cccnc1 [Compound 26, 1-Methylamino-1-(N-methyl-N-3-pyridylmethyl)amino-2-nitroethylene] | – | 100% | –
13 | CNC(=C[N+](=O)[O-])NCc1ccc(Cl)nc1 [Compound 28, 1-(6-Chloro-3-pyridylmethyl)amino-1-methylamino-2-nitroethylene] | 100% | – | –
14 | CNC(=C[N+](=O)[O-])N(C)Cc1ccc(Cl)nc1 [Compound 29, 1-[N-(6-Chloro-3-pyridylmethyl)-N-methyl]amino-1-methylamino-2-nitroethylene] | – | 100% | –
15 | CCN(Cc1cccnc1)C(=C[N+](=O)[O-])NC [Compound 31, 1-[N-Ethyl-N-(3-pyridylmethyl)]amino-1-methylamino-2-nitroethylene] | – | 100% | –
16 | CNC(=C[N+](=O)[O-])N(Cc1cccnc1)CC(OC)OC [Compound 32, 1-[N-(2-Dimethoxyethyl)-N-(3-pyridylmethyl)]amino-1-methylamino-2-nitroethylene] | – | 100% | –
17 | CCNC(=C[N+](=O)[O-])N(C)Cc1cccnc1 [Compound 33, 1-Ethylamino-1-[N-methyl-N-(3-pyridylmethy)]amino-2-nitroethylene] | – | 100% | –
18 | CCCCNC(=C[N+](=O)[O-])N(C)Cc1cccnc1 [Compound 34, 1-n-Butylamino-1-[N-methyl-N-(3-pyridylmethyl)]amino-2-nitroethylene] | – | 100% | –
19 | CNC(=C[N+](=O)[O-])N(CCOC)Cc1cccnc1 [Compound 35, 1-Methyl-amino-1-[N-(2-methoxyethyl)-N-(3-pyridylmethyl)]amino-2-nitroethylene] | – | 100% | –
20 | CC(C)NC(=C[N+](=O)[O-])N(C)Cc1cccnc1 [Compound 37, 1-iso-Propylamino-1-[N-methyl-N-(3-pyridylmethyl)]-amino-2-nitroethylene] | – | 100% | –
21 | CN(Cc1cccnc1)C(=C[N+](=O)[O-])NCc1ccccc1 [Compound 38, 1-Benzylamino-1-[N-methyl-N-(3-pyridylmethyl)l]amino-2-nitroethylene] | – | 100% | –
22 | CNC(=C[N+](=O)[O-])N(C)C(C)c1cccnc1 (stereo not shown) [Compound 40, 1-Metylamino-1-[N-methyl-N-[1-(3-pyridyl)ethyl]]amino-2-nitroethylene] | – | 100% | –
23 | CNC(=C[N+](=O)[O-])N(Cc1cccnc1)N(C)C [Compound 41, 1-[2,2-Dimethyl-1-(3-pyridylmethyl)]hydrazino-1-methylamino-2-nitroethylene] | – | 100% | –

Row | Compound | mortality at 500 µg/mL | % Mortality after 7 days [1] | further results
24 | CCCN(Cc1cccnc1)C(=C[N+](=O)[O-])NC [Compound 42, 1-Methylamino-1-[N-(n-propyl)-N-(3-pyridylmethyl)]amino-2-nitroethylene] | – | 100% | –
25 | CCCCN(C(=C[N+](=O)[O-])NC)c1cccnc1 [Compound 43] | – | 100% | –
26 | CNC(=C[N+](=O)[O-])N(Cc1ccccc1)Cc1cccnc1 [Compound 44, 1-[N-Benzyl-N-(3-pyridylmethyl)]amino-1-methylamino-2-nitroethylene] | – | 100% | –
27 | CN(Cc1ccc(Cl)nc1)C(N)=C[N+](=O)[O-] [Compound 45, 1-Amino-1-[N-(6-chloro-3-pyridylmethyl)-N-methyl]-amino-2-nitroethylene] | – | 100% | –
28 | CN(C)C(=C[N+](=O)[O-])NCc1ccc(Cl)nc1 [Compound 46, 1-(6-Chloro-3-pyridylmethyl)amino-1-dimethylamino-2-nitroethylene] | 100% | – | –
29 | CNC(=C[N+](=O)[O-])NCc1ccc(Cl)nc1Cl [Compound 47, 1-(2,6-Dichloro-3-pyridylmethyl)amino-1-methylamino-2-nitroethylene] | 100% | – | –
30 | CC(C)N(Cc1ccc(Cl)nc1)C(N)=C[N+](=O)[O-] [Compound 49, 1-Amino-1-(N-(6-chloro-3-pyridylmethyl)-N-i-propyl]amino-2-nitroethylene] | 100% | – | –
31 | CCN(C)C(=C[N+](=O)[O-])NCc1ccc(Cl)nc1 [Compound 50, 1-(6-Chloro-3-pyridylmethyl)amino-1-(N-ethyl-N-methyl)amino-2-nitroethylene] | 100% | – | –
32 | NNC(=C[N+](=O)[O-])NCc1ccc(Cl)nc1 [Compound 51, 1-(6-Chloro-3-pyridylmethyl)amino-1-hydrazino-2-nitroethylene] | 100% | – | –
33 | CN(C)NC(=C[N+](=O)[O-])NCc1ccc(Cl)nc1 [Compound 52, 1-(6-Chloro-3-pyridylmethyl)amino-1-(2,2-dimethyl-1-hydrazino)-2-nitroethylene] | 100% | – | –
34 | CNC(=C[N+](=O)[O-])N(C)CCc1cccnc1 [Compound 55, 1-Methylamino-1-[N-methyl-N-[2-(3-pyridyl)ethyl]-amino]-2-nitroethylene] | – | – | mortality at 500 µg/mL [1]: 100%
35 | CN(Cc1cccnc1)C(=C[N+](=O)[O-])N(C)Cc1cccnc1 [Compound 57, 1,1-bis(N-methyl-N-3-pyridylmethyl)amino-2-nitroethylene] | – | – | mortality at 500 µg/mL [1]: 100%
36 | CN(C)C(=C[N+](=O)[O-])N(C)Cc1ccc(Cl)nc1 [Compound 58, 1-[N-(6-Chloro-3-pyridylmethyl)-N-methyl]amino-1-dimethylamino-2-nitroethylene] | 100% | – | –
37 | CCN(Cc1ccc(Cl)nc1)C(N)=C[N+](=O)[O-] [Compound 59, 1-Amino-1-[N-(6-chloro-3-pyridylmethyl)-N-ethyl]-amino-2-nitroethylene] | 100% | – | –
38 | CCN(Cc1ccc(Cl)nc1)C(=C[N+](=O)[O-])NC [Compound 60, 1-[N-(6-Chloro-3-pyridylmethyl)-N-ethyl]amino-1-methylamino-2-nitroethylene] | – | 100% | –
39 | CNC(=C[N+](=O)[O-])N(C)Cc1ccc(OC)nc1 [Compound 61, 1-[N-(6-Methoxy-3-pyridylmethyl)-N-methyl]amino-1-methylamino-2-nitroethylene] | – | – | mortality at 500 µg/mL [1]: 100%
40 | CNC(=C[N+](=O)[O-])N(C)Cc1ccncc1 [Compound 62, 1-Methylamino-1-[N-methyl-N-(4-pyridylmethyl)]-amino-2-nitroethylene] | – | – | mortality at 500 µg/mL [1]: 100%
41 | CNC(=C[N+](=O)[O-])N(Cc1cccnc1)OC [Compound 64, 1-[N-methoxy-N-(3-pyridylmethyl)]amino-1-methyl-amino-2-nitroethylene] | – | – | mortality at 500 µg/mL [1]: 100%
42 | CN(C=O)C(=C[N+](=O)[O-])N(C)Cc1cccnc1 [Compound 65, 1-(N-Formyl-N-methyl)amino-1-[N-methyl-N-(3-pyridyl-methyl)]amino-2-nitroethylene] | – | – | mortality at 500 µg/mL [1]: 100%
43 | COCCNC(=C[N+](=O)[O-])N(C)Cc1cccnc1 [Compound 67, 1-(2-Methoxyethyl)amino-1-[N-methyl-N-(3-pyridylmethyl)]amino-2-nitroethylene] | – | – | mortality at 500 µg/mL [1]: 100%
44 | CNC(=C[N+](=O)[O-])N(C)Cc1ccc(Cl)cc1 [Compound 68, 1-[N-(4-Chlorobenzyl)-N-methyl]amino-1-methylamino-2-nitroethylene] | – | – | mortality at 500 µg/mL [1]: 100%
45 | CNC(=C[N+](=O)[O-])NCc1ccc(Cl)cc1 [Compound 70, 1-(4-Chlorobenzyl)amino-1-methylamino-2-nitroethylene] | – | – | mortality at 500 µg/mL [1]: 100%
46 | CN(C)C(=C[N+](=O)[O-])NCc1ccc(Cl)cc1 [Compound 71, 1-(4-Chlorobenzyl)amino-1-dimethylamirxo-2-nitroethylene] | – | – | mortality at 500 µg/mL [1]: 100%
